Reference: ChEMBL document CHEMBL5579867, “Ligand-Based Pharmacophoric Design and Anti-inflammatory Evaluation of Triazole Linked Semisynthetic Labdane Conjugates” (ACS Med Chem Lett, 2024)
The source made the active and inactive calls. The rule behind the calls is not given here.

Columns and labels:
[1] = tested on: RAW264.7; experiment: Antiinflammatory activity in LPS-induced mouse RAW264.7 cells assessed as inhibition of IL-6 production at 20 uM pretreated for 1 hr followed by LPS stimulation and measured after 24 hrs by ELISA; type: functional, cell-based; details: time 25.0 hrs
[2] = tested on: RAW264.7; experiment: Cytotoxicity against mouse RAW264.7 cells assessed as reduction in cell viability at 1 to 20 uM incubated for 24 hrs by MTT assay; type: toxicity, cell-based; details: raw264.7, 24 h, dose 1-20 µM
[3] = tested on: RAW264.7; experiment: Antiinflammatory activity in LPS-induced mouse RAW264.7 cells assessed as inhibition of TNF-alpha production at 20 uM pretreated for 1 hr followed by LPS stimulation and measured after 24 hrs by ELISA; type: functional, cell-based; details: time 25.0 hrs
[4] = tested on: RAW264.7; experiment: Antiinflammatory activity in LPS-induced mouse RAW264.7 cells assessed as inhibition of NO production at 1 to 20 uM pretreated for 1 hr followed by LPS stimulation and measured after 23 hrs by Griess method; type: functional, cell-based; details: dose 1-20 µM, time 24.0 hrs
[5] = tested on: RAW264.7; experiment: Inhibition of LPS-induced NF-kappaB activation in mouse RAW264.7 cells assessed as inhibition of p65 phosphorylation at 20 uM pretreated for 1 hr followed by LPS stimulation and measured after 24 hrs by Western blot analysis; type: cell-based; details: time 25.0 hrs
[6] = tested on: RAW264.7; experiment: Antiinflammatory activity in LPS-induced mouse RAW264.7 cells assessed as inhibition of NO production pretreated for 1 hr followed by LPS stimulation and measured after 23 hrs by Griess method; type: functional, cell-based

| Structure (SMILES) | Activity [1] | Activity [2] | Activity [3] | Activity [4] | inhibition [5] | IC50 [6] [µM] |
| --- | --- | --- | --- | --- | --- | --- |
| C=C1CC[C@H]2C(C)(C)CCC[C@]2(C)[C@H]1C/C=C(/C=O)CC(=O)OCc1cn(CCCN2C(=O)C(=O)c3cc(C)ccc32)nn1 | Active | Non-Toxic | Active | – | – | – |
| C=C1CC[C@H]2C(C)(C)CCC[C@]2(C)[C@H]1C/C=C(/C=O)CC(=O)OCc1cn(CCCCN2C(=O)C(=O)c3cc(I)ccc32)nn1 | Active | Non-Toxic | Active | – | – | – |
| C=C1CC[C@H]2C(C)(C)CCC[C@]2(C)[C@H]1C/C=C(/C=O)CC(=O)OCc1cn(CCN2C(=O)C(=O)c3cc(C)ccc32)nn1 | Active | Non-Toxic | Active | – | – | – |
| C=C1CC[C@H]2C(C)(C)CCC[C@]2(C)[C@H]1C/C=C(/C=O)CC(=O)OCc1cn(CCCCN2C(=O)C(=O)c3cc(Cl)ccc32)nn1 | Active | Non-Toxic | Active | – | – | – |
| C=C1CC[C@H]2C(C)(C)CCC[C@]2(C)[C@H]1C/C=C(\CC(=O)O)C(=O)O | Active | Non-Toxic | Active | – | – | – |
| C=C1CC[C@H]2C(C)(C)CCC[C@]2(C)[C@H]1C/C=C(/C=O)CC(=O)OCc1cn(CCN2C(=O)C(=O)c3cc(F)ccc32)nn1 | Active | Non-Toxic | Active | inactive | – | – |
| C=C1CC[C@H]2C(C)(C)CCC[C@]2(C)[C@H]1C/C=C(\CC(=O)OCc1cn(CCN2C(=O)C(=O)c3cc(I)ccc32)nn1)C(=O)OCc1cn(CCN2C(=O)C(=O)c3cc(I)ccc32)nn1 | Active | Non-Toxic | Active | – | – | – |
| C=C1CC[C@H]2C(C)(C)CCC[C@]2(C)[C@H]1C/C=C(/C=O)CC(=O)OCc1cn(CCCN2C(=O)C(=O)c3cc(OC(F)(F)F)ccc32)nn1 | Active | Non-Toxic | Active | – | – | – |
| C=C1CC[C@H]2C(C)(C)CCC[C@]2(C)[C@H]1C/C=C(/C=O)CC(=O)OCc1cn(CCCCN2C(=O)C(=O)c3cc(F)ccc32)nn1 | Active | Non-Toxic | Active | – | – | – |
| COc1ccc2c(c1)c(CC(=O)O)c(C)n2C(=O)c1ccc(Cl)cc1 [INDOMETHACIN] | – | – | – | – | Active | 7.31 |
| C=C1CC[C@H]2C(C)(C)CCC[C@]2(C)[C@H]1C/C=C(/C=O)CC(=O)OCc1cn(CCN2C(=O)C(=O)c3cc(OC(F)(F)F)ccc32)nn1 | Active | Non-Toxic | Active | Active | – | – |
| C=C1CC[C@H]2C(C)(C)CCC[C@]2(C)[C@H]1C/C=C(\CC(=O)OCc1cn(CCN2C(=O)C(=O)c3cc(Br)ccc32)nn1)C(=O)OCc1cn(CCN2C(=O)C(=O)c3cc(Br)ccc32)nn1 | Active | Non-Toxic | Active | – | – | – |
| C=C1CC[C@H]2C(C)(C)CCC[C@]2(C)[C@H]1C/C=C(/C=O)CC(=O)OCc1cn(CCCCN2C(=O)C(=O)c3cc(OC)ccc32)nn1 | Active | Non-Toxic | Active | – | – | – |
| C=C1CC[C@H]2C(C)(C)CCC[C@]2(C)[C@H]1C/C=C(/C=O)CC(=O)OCc1cn(CCCN2C(=O)C(=O)c3cc(Cl)ccc32)nn1 | Active | Non-Toxic | Active | – | – | – |
| C=C1CC[C@H]2C(C)(C)CCC[C@]2(C)[C@H]1C/C=C(/C=O)CC(=O)OCc1cn(CCCN2C(=O)C(=O)c3cc(OC)ccc32)nn1 | Active | Non-Toxic | Active | – | – | – |
| C=C1CC[C@H]2C(C)(C)CCC[C@]2(C)[C@H]1C/C=C(/C=O)CC(=O)OCc1cn(CCN2C(=O)C(=O)c3cc(Br)ccc32)nn1 | Active | Non-Toxic | Active | inactive | – | – |
| C=C1CC[C@H]2C(C)(C)CCC[C@]2(C)[C@H]1C/C=C(/C=O)CC(=O)OCc1cn(CCN2C(=O)C(=O)c3cc(Cl)ccc32)nn1 | Active | Non-Toxic | Active | inactive | – | – |
| C=C1CC[C@H]2C(C)(C)CCC[C@]2(C)[C@H]1C/C=C(/C=O)CC(=O)OCc1cn(CCCN2C(=O)C(=O)c3cc(F)ccc32)nn1 | Active | Non-Toxic | Active | Active | – | – |

| Structure (SMILES) | Activity [1] | Activity [2] | Activity [3] | Activity [4] | inhibition [5] | IC50 [6] [µM] |
| --- | --- | --- | --- | --- | --- | --- |
| C=C1CC[C@H]2C(C)(C)CCC[C@]2(C)[C@H]1C/C=C(\CC(=O)OCc1cn(CCN2C(=O)C(=O)c3cc(C)ccc32)nn1)C(=O)OCc1cn(CCN2C(=O)C(=O)c3cc(C)ccc32)nn1 | Active | Non-Toxic | Active | – | – | – |
| C=C1CC[C@H]2C(C)(C)CCC[C@]2(C)[C@H]1C/C=C(\CC(=O)OCc1cn(CCN2C(=O)C(=O)c3cc(OC)ccc32)nn1)C(=O)OCc1cn(CCN2C(=O)C(=O)c3cc(OC)ccc32)nn1 | Active | Non-Toxic | Active | – | – | – |
| C=C1CC[C@H]2C(C)(C)CCC[C@]2(C)[C@H]1C/C=C(\CC(=O)OCc1cn(CCCN2C(=O)C(=O)c3cc(OC)ccc32)nn1)C(=O)OCc1cn(CCCN2C(=O)C(=O)c3cc(OC)ccc32)nn1 | Active | Non-Toxic | Active | – | – | – |
| C=C1CC[C@H]2C(C)(C)CCC[C@]2(C)[C@H]1C/C=C(/C=O)CC(=O)OCc1cn(CCCCN2C(=O)C(=O)c3ccccc32)nn1 | Active | Non-Toxic | Active | inactive | – | – |
| C=C1CC[C@H]2C(C)(C)CCC[C@]2(C)[C@H]1C/C=C(/C=O)CC(=O)OCc1cn(CCCN2C(=O)C(=O)c3ccccc32)nn1 | Active | Non-Toxic | Active | inactive | – | – |
| C=C1CC[C@H]2C(C)(C)CCC[C@]2(C)[C@H]1C/C=C(/C=O)CC(=O)OCc1cn(CCN2C(=O)C(=O)c3cc(I)ccc32)nn1 | Active | Non-Toxic | Active | inactive | – | – |
| C=C1CC[C@H]2C(C)(C)CCC[C@]2(C)[C@H]1C/C=C(/C=O)CC(=O)OCc1cn(CCCCN2C(=O)C(=O)c3cc(OC(F)(F)F)ccc32)nn1 | Active | Non-Toxic | Active | – | – | – |
| C=C1CC[C@H]2C(C)(C)CCC[C@]2(C)[C@H]1C/C=C(/C=O)CC(=O)OCc1cn(CCCN2C(=O)C(=O)c3cc(I)ccc32)nn1 | Active | Non-Toxic | Active | – | – | – |
| C=C1CC[C@H]2C(C)(C)CCC[C@]2(C)[C@H]1C/C=C(/C=O)CC(=O)OCc1cn(CCCCN2C(=O)C(=O)c3cc(C)ccc32)nn1 | Active | Non-Toxic | Active | Active | – | – |
| C=C1CC[C@H]2C(C)(C)CCC[C@]2(C)[C@H]1C/C=C(\CC(=O)OCc1cn(CCN2C(=O)C(=O)c3cc(Cl)ccc32)nn1)C(=O)OCc1cn(CCN2C(=O)C(=O)c3cc(Cl)ccc32)nn1 | Active | Non-Toxic | Active | – | – | – |
| C=C1CC[C@H]2C(C)(C)CCC[C@]2(C)[C@H]1C/C=C(\CC(=O)OCc1cn(CCN2C(=O)C(=O)c3cc(F)ccc32)nn1)C(=O)OCc1cn(CCN2C(=O)C(=O)c3cc(F)ccc32)nn1 | Active | Non-Toxic | Active | – | – | – |
| C=C1CC[C@H]2C(C)(C)CCC[C@]2(C)[C@H]1C/C=C(/C=O)CC(=O)OCc1cn(CCCCN2C(=O)C(=O)c3cc(Br)ccc32)nn1 | Active | Non-Toxic | Active | – | – | – |
| C=C1CC[C@H]2C(C)(C)CCC[C@]2(C)[C@H]1C/C=C(/C=O)CC(=O)OCc1cn(CCN2C(=O)C(=O)c3cc(OC)ccc32)nn1 | Active | Non-Toxic | Active | – | – | – |
| C=C1CC[C@H]2C(C)(C)CCC[C@]2(C)[C@H]1C/C=C(/C=O)CC=O | Active | Non-Toxic | Active | – | – | – |
| C=C1CC[C@H]2C(C)(C)CCC[C@]2(C)[C@H]1C/C=C(/C=O)CC(=O)OCc1cn(CCCN2C(=O)C(=O)c3cc(Br)ccc32)nn1 | Active | Non-Toxic | Active | – | – | – |
| C=C1CC[C@H]2C(C)(C)CCC[C@]2(C)[C@H]1C/C=C(\CC(=O)OCc1cn(CCCN2C(=O)C(=O)c3cc(Cl)ccc32)nn1)C(=O)OCc1cn(CCCN2C(=O)C(=O)c3cc(Cl)ccc32)nn1 | Active | Non-Toxic | Active | – | – | – |
| C=C1CC[C@H]2C(C)(C)CCC[C@]2(C)[C@H]1C/C=C(\CC(=O)OCc1cn(CCN2C(=O)C(=O)c3ccccc32)nn1)C(=O)OCc1cn(CCN2C(=O)C(=O)c3ccccc32)nn1 | Active | Non-Toxic | Active | Active | – | – |
